Like-named read-outs stand apart in the source and are kept apart here.
Experiments:
[1] = cited from earlier work
[2] = in water and common media; cited from earlier work
[3] = Skin absorption of indomethacin suspended in conventional ointment bases; type: in vivo, human beings; settings: topical
[4] = Effect of pH of the ointment on indomethacin (crystallization, decomposition); type: physicochemical
[5] = Topical administration of indomethacin: activity and adverse reactions; type: in vivo; settings: administered topically
[6] = Effect of adjuvant on skin absorption of indomethacin; type: in vivo; settings: combination with an adjuvant

COc1ccc2c(c1)c(CC(=O)O)c(C)n2C(=O)c1ccc(Cl)cc1 [indomethacin, Indomethacin]
adverse effects ([1]; oral use): gastroenteric disorders
adverse effects ([1]; suppository form, patient suffering from peptic ulcer): decreased appetite, nausea, vomiting, stomach ache, diarrhea and loose passage
solubility [2]: only slightly soluble
absorption by the skin [3]: remain unabsorbed by the skin of human beings
decomposition of indomethacin ([4]; pH level above 7.5): decomposed indomethacin
crystallization during the ointment preparation ([4]; pH level below 4.8): crystallization of indomethacin
adverse reactions attributable to the administration of indomethacin [5]: completely eliminated
antiinflammatory analgesic activity, topical vs internal use [5]: to the same extent as attained by its internal use
absorption of indomethacin by the skin [6]: substantially increased

Source: patent US4525347A, “Antiinflammatory analgesic gelled ointment” (Kowa Company Limited, priority 1983, dated 1985)
